# Source: patent US20150118311A1, “Highly Penetrative Nanocarriers for Treatment of CNS Disease” (priority 2012, published 2015)
# Like-named read-outs stand apart in the source and are kept apart here.
# What was measured:
# [1] = tested on: GS5 cells; assay: GS5 cell proliferation/viability (MTT, AlamarBlue); type: cell-based, human
# [2] = tested on: BCSCs; type: cell-based, human
# [3] = tested on: BCSC line PS11; assay: Flow cytometry of CD133+ population in PS11; conditions: 1 μM
# [4] = tested on: BCSC sphere formation; assay: BCSC sphere formation
# [5] = tested on: U87MG; assay: cells; conditions: Homo sapiens, U-87 MG, read-out: IC50, growth of U87MG in vitro
# [6] = tested on: U87MG-derived xenografts; assay: Survival of nude rats with intracranial U87MG xenografts after CED; type: in vivo; conditions: U87MG xenograft
# [7] = tested on: CD133+ cell population; assay: Flow cytometry of CD133+ cell population in BCSC culture; type: cell-based, human; conditions: 100 nM drug, 3 days after plating, DI treated culture
# [8] = tested on: GS5-derived tumors; assay: Survival of nude rats with intracranial GS5 (BCSC) xenografts after CED; type: in vivo; conditions: BCSC xenograft tumors in the rat, FIG. 1C
# [9] = Homo sapiens, 72 h, read-out: IC50 of candidate drugs on GS5 cells
# [10] = read-out: IC50 of candidate drugs on GS5 cells
# [11] = Homo sapiens, 72 h, GS5 cells, three days after treatment, read-out: IC50 of candidate drugs on GS5 cells
# [12] = GS5 cells, three days after treatment, read-out: IC50 of candidate drugs on GS5 cells
compound,measurement,setting,value
CC(C)C[C@H]1C(=O)N2CCC[C@H]2[C@]2(O)O[C@](NC(=O)[C@@H]3C=C4c5cccc6[nH]c(Br)c(c56)C[C@H]4N(C)C3)(C(C)C)C(=O)N12 [Bromocriptine],IC50,[1]; [9],9.1 µM
COc1ccc(C[C@H]2NC[C@H](O)[C@H]2OC(C)=O)cc1 [Anisomycin],performance on in vitro assays against BCSCs,[2],performed well
same,IC50,[1]; [10],0.3 µM
CN1CCC(Nc2ncc3ncnc(Nc4ccc(F)c(Cl)c4)c3n2)CC1 [Falnidamol],IC50,[1]; [9],22 µM
CC[C@H]1CN2CCc3cc(OC)c(OC)cc3[C@@H]2C[C@@H]1C[C@H]1NCCc2cc(OC)c(OC)cc21 [Emetine],IC50,[1]; [11],0.3 µM
Acriflavine hydrochloride,IC50,[1]; [12],3 µM
Nc1nc2nc[nH]c2c(=S)[nH]1 [Thioguanine],IC50,[1]; [11],4.6 µM
O=S(=O)([O-])[O-].[Fe+2] [Iron(II) sulfate heptahydrate],IC50,[1]; [10],32.1 µM
Cc1ccc2ccc3ccc(C)nc3c2n1 [Neocuproine],IC50,[1]; [11],0.2 µM
COc1ccc2c(c1)[nH]c1c(C)nccc12 [Harmine],IC50,[1]; [9],19.3 µM
Nc1ccn([C@@H]2O[C@H](CO)[C@@H](O)[C@@H]2O)c(=O)n1 [Cytarabine],IC50,[1]; [11],0.8 µM
N=C(N)NCC(=O)O [Glycocyamine],IC50,[1]; [11],33.9 µM
CC1=C2N=C(C=C3N=C(C(C)=C4[N-]C(C(CC(N)=O)C4(C)CCC(=O)NCC(C)OP(=O)([O-])OC4C(CO)OC(n5cnc6cc(C)c(C)cc65)C4O)C4(C)N=C1C(CCC(N)=O)C4(C)CC(N)=O)C(CCC(N)=O)C3(C)C)C(CCC(N)=O)C2(C)CC(N)=O.Cl.[Co+3].[OH-] (stereo not shown) [Hydroxocobalamin hydrochloride],IC50,[1]; [10],32.1 µM
CCN(CC)CCCC(C)Nc1c2ccc(Cl)cc2nc2ccc(OC)cc12 (stereo not shown) [Quinacrine],IC50,[1]; [11],2.7 µM
Sc1ncnc2nc[nH]c12 [6-Mercaptopurine monohydrate],IC50,[1]; [9],7.8 µM
CCN(CC)CCNc1ccc(CO)c2sc3ccccc3c(=O)c12 [Hycanthone],IC50,[1]; [11],5.6 µM
CCCCCCCCCCCCCCCCOP(=O)([O-])OCC[N+](C)(C)C [Miltefosine],IC50,[1]; [11],27.8 µM
CN(C)CCC(c1ccc(Cl)cc1)c1ccccn1 (stereo not shown) [Chlorpheniramine],IC50,[1]; [11],40.4 µM
C[C@H]1O[C@@H](O[C@H]2[C@@H](O)C[C@H](O[C@H]3[C@@H](O)C[C@H](O[C@H]4CC[C@@]5(C)[C@H](CC[C@@H]6[C@@H]5C[C@@H](O)[C@]5(C)[C@@H](C7=CC(=O)OC7)CC[C@]65O)C4)O[C@@H]3C)O[C@@H]2C)C[C@H](O)[C@@H]1O [Digoxin],effect on CD133+ population,[3],decreased the CD133+ population
same,effect on BCSC proliferation,[2],inhibited BCSC proliferation
same,performance on in vitro assays against BCSCs,[2],performed well
same,effect on BCSC sphere formation,[4]; 1 μM,inhibited BCSC sphere formation
same,effect on BCSC sphere formation,[4]; 5 μM,inhibited BCSC sphere formation
same,IC50,[1]; [9],0.3 µM
C[C@H]1C[C@H]2[C@@H]3CCC4=CC(=O)C=C[C@]4(C)[C@@]3(F)[C@@H](O)C[C@]2(C)[C@@]1(O)C(=O)CO [Betamethasone],IC50,[1]; [11],25.9 µM
CC1=C(C(=O)O)N2C(=O)[C@@H](NC(=O)[C@H](N)C3=CCC=CC3)[C@H]2SC1 [Cephradine],IC50,[1]; [11],38.5 µM
CCC(=O)[O-].CCC(=O)[O-].[Ca+2] [Calcium propionate],IC50,[1]; [10],29.5 µM
C[C@@H]1O[C@@H](O[C@@H]2C=C3CC[C@@H]4[C@H](CC[C@]5(C)[C@@H](c6ccc(=O)oc6)CC[C@]45O)[C@@]3(C)CC2)[C@H](O)[C@H](O)[C@H]1O [Proscillaridin A],IC50,[1]; [10],0.1 µM
CC(=O)O[C@H]1C(=O)[C@@]2(C)[C@H]([C@H](OC(=O)c3ccccc3)[C@]3(O)C[C@H](OC(=O)[C@H](O)[C@@H](NC(=O)c4ccccc4)c4ccccc4)C(C)=C1C3(C)C)[C@]1(OC(C)=O)CO[C@@H]1C[C@@H]2O [paclitaxel],IC50,[5],0.169 µM
same,survival benefit compared to no treatment,[6]; CED,failed to show a survival benefit
same,median survival,[6]; single CED infusion 7 days after inoculation,30 days
S=C(S)N1CCCC1 [Ammonium pyrrolidinedithiocarbamate],IC50,[1]; [12],3.3 µM
Nc1nc(Cl)nc2c1ncn2[C@H]1C[C@H](O)[C@@H](CO)O1 [Cladribine],IC50,[1]; [11],3.4 µM
CCN1/C(=C/C=C/C=C/c2sc3ccccc3[n+]2CC)Sc2ccccc21 [Dithiazanine iodide],decrease of CD133+ cell population,[7],57%
same,median survival,[8],177 days
same,IC50,[1]; [11],0.3 µM
same,IC50,"[1]; Homo sapiens, GS5, running text, read-out: IC50, inhibition of GS5 proliferation",0.079 µM
